Experimental data from article PMC8747035, “Design, Synthesis, and Biological Evaluation of 5,6,7,8-Tetrahydrobenzo[4,5]thieno[2,3-d]pyrimidines as Microtubule Targeting Agents” (Molecules, 2022).

Key:
Type in all cases: cell-based
[1] = test system: NCI-60 cancer cell line panel; test: NCI-60 cancer cell line panel (overall); settings: Homo sapiens; 40 most sensitive of the 60 cancer cell lines
Source text: (§1) Compound 4 had better potency than the lead compound 1 in 50 cancer cell lines. (better by 5 to 6-fold in leukemia, 2 to 17-fold in NSCLC, 2 to 6-fold in colon cancer, 2 to 5-fold in CNS cancer, 2 to 25-fold in melanoma, 2 to 5-fold in ovarian cancer, 2 to 9-fold in renal cancer, 2 to 5-fold in prostate cancer, and 2 to 6-fold in breast cancer compared to lead compound 1).

MALME-3M = test: NCI-60 growth inhibition, MALME-3M; settings: Homo sapiens, Melanoma
Source text: as §1

CCRF-CEM = test: NCI-60 growth inhibition, CCRF-CEM; settings: Homo sapiens, Leukemia
Source text: as §1

CAKI-1 = test: NCI-60 growth inhibition, CAKI-1; settings: Homo sapiens, Renal Cancer
Source text: as §1

HCC-2998 = test: NCI-60 growth inhibition, HCC-2998; settings: Homo sapiens, Colon Cancer
Source text: as §1

NCI-H522 = test: NCI-60 growth inhibition, NCI-H522; settings: Homo sapiens, NSCLC
Source text: as §1

ACHN = test: NCI-60 growth inhibition, ACHN; settings: Homo sapiens, Renal Cancer
Source text: as §1

SK-OV-3 MDR1-M6/6 cells = test: SRB assay in Pgp-expressing SK-OV-3 MDR1-M6/6 cells; settings: Homo sapiens, SKOV3-MDR1-M6/6, read-out: IC50 ± SD in SK-OV-3 MDR1-M6/6 Cells
Procedure: Comparison of the IC50 values in the parental SK-OV-3 and genetically manipulated SK-OV-3 MDR1-M6/6 cell line allows for the calculation of a relative resistance value, designated Rr. This value is calculated by dividing the IC50 value obtained in the Pgp-expressing SK-OV-3 MDR1-M6/6 cells by the IC50 obtained in the parental SK-OV-3 cells.
(§2) The antiproliferative and cytotoxic effects of the compounds in cancer cells were evaluated using the SRB assay as previously described. MDA-MB-435 cells were obtained from the Lombardi Cancer Center of Georgetown University (Washington, DC, USA). SK-OV-3 and HeLa cells were purchased from ATCC. Details about the generation of the SK-OV-3 MDR1-M6/6 and HeLa WTβIII cells were described previously. The IC50 values represent an average of three independent experiments, each conducted using triplicate points.
(§3) HeLa, A-10, SK-OV-3, and SK-OV-3 MDR1-M6/6 cells were grown in Basal Medium Eagle (Sigma-Aldrich, St. Louis, MO, USA) supplemented with 10% FBS (Hyclone, GE Life Sciences, Logan, UT, USA) 1% GlutaMAX (Gibco, Life Technologies, Waltham, MA, USA) and 50 µg/mL gentamycin (Life Technologies, USA). HeLa WTβIII cells were grown in Dulbecco’s Modified Eagle Medium (Life Technologies) supplemented with 10% FBS and 50 µg/mL gentamycin. MDA-MB-435 cells were maintained in Improved Minimum Essential Medium (Life Technologies) supplemented with 10% FBS and 25 µg/mL gentamycin. All cells were grown at 37 °C in a humidified environment with 5% CO2.

LOX IMVI = test: NCI-60 growth inhibition, LOX IMVI; settings: Homo sapiens, Melanoma
Source text: as §1

KM12 = test: NCI-60 growth inhibition, KM12; settings: Homo sapiens, Colon Cancer
Source text: as §1

OVCAR-8 = test: NCI-60 growth inhibition, OVCAR-8; settings: Homo sapiens, Ovarian Cancer
Source text: as §1

EKVX = test: NCI-60 growth inhibition, EKVX; settings: Homo sapiens, NSCLC
Source text: as §1

SK-MEL-2 = test: NCI-60 growth inhibition, SK-MEL-2; settings: Homo sapiens, Melanoma
Source text: as §1

A-10 cells = test: Cellular microtubule depolymerization in A-10 cells (immunofluorescence); settings: Rattus norvegicus, A10; 18 h, loss of 50% of interphase microtubules
Procedure: We investigated the microtubule depolymerization and the antiproliferative activities of compounds 4–14 (Table 2). […] We next evaluated the importance of the 4′-OMe group of compound 4 by replacing it with an isosteric 4′-SMe (5). […] Clearly, this further substantiated the importance of an S in the scaffold over an NH.
The effects of the compounds on cellular microtubules were evaluated in A-10 cells using indirect immunofluorescence microscopy. These cells were obtained from the American Type Culture Collection (ATCC) (Manassas, VA, USA). Cells were treated with the compounds of interest for 18 h, and the cells fixed with cold MeOH and microtubule structures were visualized using a β-tubulin antibody (Sigma-Aldrich, St. Louis, MO, USA). The concentration that caused loss of 50% of the interphase microtubules was defined as the EC50 and calculated as previously described. These values represent an average of at least three independent experiments.

HL-60(TB) = test: NCI-60 growth inhibition, HL-60(TB); settings: Homo sapiens, Leukemia
Source text: as §1

MDA-MB-231/ATCC = test: NCI-60 growth inhibition, MDA-MB-231/ATCC; settings: Homo sapiens, Breast Cancer
Source text: as §1

NCI/ADR-RES = test: NCI-60 growth inhibition, NCI/ADR-RES; settings: Homo sapiens, Ovarian Cancer
Source text: as §1

SF-539 = test: NCI-60 growth inhibition, SF-539; settings: Homo sapiens, CNS Cancer
Source text: as §1

HCT-116 = test: NCI-60 growth inhibition, HCT-116; settings: Homo sapiens, Colon Cancer
Source text: as §1

HeLa cells = test: SRB assay in HeLa cells; settings: Homo sapiens, read-out: IC50 ± SD in HeLa
Procedure: Compounds 4–8, 10, 12, and 13 were evaluated for their abilities to overcome βIII-tubulin mediated drug resistance using an isogenic HeLa cell line pair (Table 4). […] The Rr values (Table 4) were calculated by dividing the IC50 of the βIII-tubulin expressing line by the IC50 obtained in the parental HeLa cells.
as §2, §3

UACC-257 = test: NCI-60 growth inhibition, UACC-257; settings: Homo sapiens, Melanoma
Source text: as §1

K-562 = test: NCI-60 growth inhibition, K-562; settings: Homo sapiens, K562, Leukemia
Source text: as §1

UACC-62 = test: NCI-60 growth inhibition, UACC-62; settings: Homo sapiens, Melanoma
Source text: as §1

RPMI-8226 = test: NCI-60 growth inhibition, RPMI-8226; settings: Homo sapiens, Leukemia
Source text: as §1

PC-3 = test: NCI-60 growth inhibition, PC-3; settings: Homo sapiens, Prostate Cancer
Source text: as §1

SMILES: COc1ccc(N(C)c2nc(N)nc3sc4c(c23)CCCC4)cc1 [Compound 4, N4-(4-methoxyphenyl)-N4-methyl-5,6,7,8-tetrahydrobenzo[4,5]thieno[2,3-d]pyrimidine-2,4-diamine]
- GI50 [1]: ~0.01 µM
- GI50 (MALME-3M): 0.0122 µM
- GI50 (CCRF-CEM): 0.00712 µM
- GI50 (CAKI-1): 0.0168 µM
- GI50 (HCC-2998): 0.0118 µM
- GI50 (NCI-H522): 0.00687 µM
- GI50 (ACHN): 0.0102 µM
- IC50 (SK-OV-3 MDR1-M6/6 cells): 0.0175 ± 0.0008 µM
- GI50 (LOX IMVI): 0.0101 µM
- GI50 (KM12): 0.0135 µM
- GI50 (OVCAR-8): 0.0181 µM
- GI50 (EKVX): 0.0112 µM
- GI50 (SK-MEL-2): 0.0118 µM
- EC50 (A-10 cells): 0.019 µM
- GI50 (HL-60(TB)): 0.00438 µM
- GI50 (MDA-MB-231/ATCC): 0.0109 µM
- GI50 (NCI/ADR-RES): 0.00619 µM
- GI50 (SF-539): 0.00793 µM
- GI50 (HCT-116): 0.00546 µM
- IC50 (HeLa cells): 0.0135 ± 0.0015 µM
- GI50 (UACC-257): 0.0184 µM
- GI50 (K-562): 0.00272 µM
- GI50 (UACC-62): 0.0149 µM
- GI50 (RPMI-8226): 0.0127 µM
- GI50 (PC-3): 0.00767 µM
